Measured values: patent publication US20150366943A1, “MOBILIZATION OF HEMATOPOIETIC STEM CELLS FROM BONE MARROW TO BLOOD USING A COMBINATION OF A ROBO4 RECEPTOR ANTAGONIST AND A CXCR4 ANTAGONIST OR hrVEGF-165 AND A CXCR4 ANTAGONIST” (The Regents of the University of California, priority 2012, published 2015)

B1: Slit2: the Robo ligand Slit2, a large secreted protein (protein, UniProt O94813 31-1529, looked up)
Slit homolog 2 protein: QCSCSGSTVDCHGLALRSVPRNIPRNTERLDLNGNNITRITKTDFAGLRHLRVLQLMENKISTIERGAFQDLKELERLRLNRNHLQLFPELLFLGTAKLYRLDLSENQIQAIPRKAFRGAVDIKNLQLDYNQISCIEDGAFRALRDLEVLTLNNNNITRLSVASFNHMPKLRTFRLHSNNLYCDCHLAWLSDWLRQRPRVGLYTQCMGPSHLRGHNVAEVQKREFVCSGHQSFMAPSCSVLHCPAACTCSNNIVDCRGKGLTEIPTNLPETITEIRLEQNTIKVIPPGAFSPYKKLRRIDLSNNQISELAPDAFQGLRSLNSLVLYGNKITELPKSLFEGLFSLQLLLLNANKINCLRVDAFQDLHNLNLLSLYDNKLQTIAKGTFSPLRAIQTMHLAQNPFICDCHLKWLADYLHTNPIETSGARCTSPRRLANKRIGQIKSKKFRCSAKEQYFIPGTEDYRSKLSGDCFADLACPEKCRCEGTTVDCSNQKLNKIPEHIPQYTAELRLNNNEFTVLEATGIFKKLPQLRKINFSNNKITDIEEGAFEGASGVNEILLTSNRLENVQHKMFKGLESLKTLMLRSNRITCVGNDSFIGLSSVRLLSLYDNQITTVAPGAFDTLHSLSTLNLLANPFNCNCYLAWLGEWLRKKRIVTGNPRCQKPYFLKEIPIQDVAIQDFTCDDGNDDNSCSPLSRCPTECTCLDTVVRCSNKGLKVLPKGIPRDVTELYLDGNQFTLVPKELSNYKHLTLIDLSNNRISTLSNQSFSNMTQLLTLILSYNRLRCIPPRTFDGLKSLRLLSLHGNDISVVPEGAFNDLSALSHLAIGANPLYCDCNMQWLSDWVKSEYKEPGIARCAGPGEMADKLLLTTPSKKFTCQGPVDVNILAKCNPCLSNPCKNDGTCNSDPVDFYRCTCPYGFKGQDCDVPIHACISNPCKHGGTCHLKEGEEDGFWCICADGFEGENCEVNVDDCEDNDCENNSTCVDGINNYTCLCPPEYTGELCEEKLDFCAQDLNPCQHDSKCILTPKGFKCDCTPGYVGEHCDIDFDDCQDNKCKNGAHCTDAVNGYTCICPEGYSGLFCEFSPPMVLPRTSPCDNFDCQNGAQCIVRINEPICQCLPGYQGEKCEKLVSVNFINKESYLQIPSAKVRPQTNITLQIATDEDSGILLYKGDKDHIAVELYRGRVRASYDTGSHPASAIYSVETINDGNFHIVELLALDQSLSLSVDGGNPKIITNLSKQSTLNFDSPLYVGGMPGKSNVASLRQAPGQNGTSFHGCIRNLYINSELQDFQKVPMQTGILPGCEPCHKKVCAHGTCQPSSQAGFTCECQEGWMGPLCDQRTNDPCLGNKCVHGTCLPINAFSYSCKCLEGHGGVLCDEEEDLFNPCQAIKCKHGKCRLSGLGQPYCECSSGYTGDSCDREISCRGERIRDYYQKQQGYAACQTTKKVSRLECRGGCAGGQCCGPLRSKRRKYSFECTDGSSFVDEVEKVVKCGCTRCVS

How the values were obtained:
[1] = system: HSC localization to the BM; details: three hours post-injection
Procedure: BM cells were labeled with CFSE labeling dye (Invitrogen) for 5 minutes at ambient temperature, followed by antibody labeling and isolation of cKit^+/Lin^−/Sca1^+/CFSE^hi cells by two rounds of FACS. Sorted cells were split in two equal parts and incubated with or without AMD3100 ([…]) on ice for 30 minutes. Cells were washed, pelleted by centrifugation, and resuspended in HBSS at 400,000 cells/ml. Hosts, lethally irradiated 24 hours prior to transplantation, were injected IV with 40,000 cells in 100 μI. Three hours post-transplant, tissues were harvested from individual mice and analyzed for CFSE labeled cells by flow cytometry. Total cell numbers were counted using a Beckman Coulter Cell Counter.

[2] = system: hematopoietic stem cells (HSC) and progenitors in peripheral blood
Procedure: Briefly, mice were injected IP with 200 mg/kg of Cytoxan in HBSS (Sigma-Aldrich) on day −1, followed by 2 or 4 sequential daily sub-cutaneous injections of […] rhG-CSF (Humanzyme, Chicago, Ill.). Tissues were analyzed on day 2 or 4, as indicated (FIGS. 3A, 4A). A cohort from each group was injected IV with 5 mg/kg of AMD3100 1 hour prior to sacrifice. For AMD3100 alone, mice were treated with two serial AMD3100 (5 mg/kg) IV injections one hour apart. Peripheral blood, spleen, and bone marrow were isolated one hour later and processed for cell counts and flow cytometry analysis to determine the numbers and frequencies of each cell population.

[3] = system: BM cell (HSC, T cell) migration toward Sdf1; test: Modified Boyden (transwell) migration assay; assay type: cell-based, mice
Procedure: BM cells (lineage depleted by magnetic selection, when appropriate), were preincubated at 37° C. for one hour, then placed in the upper chamber of a transwell insert (5 μm pore size). Bottom and/or top wells contained Sdf1 (100 ng/ml) and/or Slit2, as indicated. Cells were allowed to migrate for 2 hrs at 37° C. before harvesting and analysis by flow cytometry.

[4] = system: hematopoietic stem cells (HSC) and progenitors in peripheral blood; details: previous reports (Bonig 2009; Broxmeyer 2005); cited from earlier work
HL60 cells = test: HL60 cell migration toward fMLP; assay type: cell-based; details: Slit2, FIG. 11C
Procedure: (A) Purified Sdf1 (100 ng/ml) with and without Slit2 (250 or 500 ng/ml) was placed in bottom wells and the migration of lineage-depleted BM cells after a 2-hour incubation period were quantitated by flow cytometry. […] (B) Slit2 had no effect on T cell migration by itself (black bars) or in combination with Sdf1 (purple bars) in vitro. Experiment performed as in A, except unfractionated BM cells were placed in top wells. (C) Slit2 attenuated HL60 cell migration toward fMLP. Data shown are representative of at least two (C) or three (A and B) independent experiments. Error bars represent SEM. *p<0.03.

wt HSC = test: In vitro proliferation of HSC; assay type: cell-based, mice; details: Slit2 4 ug/ml, FIG. 9E
Procedure: HSC and MPP were isolated and sorted from Robo4^−/− and wt mice as previously described. 90-200 cells were plated per well of either strain into a 96-well U-bottom tissue culture plate and cultured for up to 10 days in IMEM medium (Fisher) supplemented with 10% FBS, 25 ng/ml of IL-11, 25 ng/ml of GM-CSF, 25 ng/ml of SCF, 10 ng/ml IL-3 (Cytokines from Peprotech) and Primocin (Invivogen). On days 3, 5, 7, and 10 FITC-labeled spherobeads (BD Bioscience) were added and triplicate samples were analyzed using a FACSAria. Cell expansion rates were calculated based on the number of beads recovered per 10,000 beads added per well.

Molecule	reduction in donor cells localizing to the BM ([1]; AMD3100 preincubation of wt cells, FIG. 6B)	BM localization of Robo4-deficient cells treated with AMD3100 ([1]; FIG. 6B)	donor cells in the blood stream ([1]; FIG. 6C)	localization to the spleen ([1]; FIG. 6D)	efficiency of AMD3100-induced HSC mobilization in Robo4−/− mice compared to wt mice ([2]; FIG. 4E)	progenitor cell numbers in the blood ([2]; one hour after two sequential AMD3100 injections, wt mice)	circulating HSC ([2]; one hour after two sequential AMD3100 injections, wt mice, FIG. 4D)	increase in PB HSC ([2]; wt mice, AMD3100 mobilization, FIG. 4D)	cell migration toward Sdf1 after preincubation with AMD3100 ([3]; increasing amounts of AMD3100, FIG. 6A)	concentration giving complete inhibition of HSC migration toward Sdf1 ([3]; preincubation with AMD3100, FIG. 6A)	HSC numbers increase (long-term reconstitution capability of PB cells upon AMD3100 mobilization) [4]	HL60 cell migration toward fMLP (HL60 cells)	migration of CD4+T cells toward Sdf1 ([3]; Slit2, FIG. 11B)	HSC migration toward Slit2 ([3]; data not shown)	cell migration toward Sdf1 with Slit2 added ([3]; lineage-depleted BM cells, Sdf1 100 ng/ml, Slit2 250 or 500 ng/ml, 2-hour incubation, FIG. 11A)	in vitro proliferation rates of wt HSC (wt HSC)
c1cc(CN2CCCNCCNCCCNCC2)ccc1CN1CCCNCCNCCCNCC1 [AMD3100]	~2 fold	further decrease in BM localization	reciprocal increase	no differences	much greater	increased robustly	surprisingly few	~1.5 fold	dose-dependent decrease	25 µM	1.5-8 fold	–	–	–	–	–
B1	–	–	–	–	–	–	–	–	–	–	–	inhibition	not affected	did not detect	No significant differences	did not affect
